# Experimental data published in patent publication US8119589B2, “Modulation of CD4+ T cell responses by a tick saliva protein, Salp15 and polypeptides derived therefrom” (University of North Carolina at Charlotte, priority 2004, dated 2012).
# Assays:
# CD4 co-receptor = molecular target: T1, CD4 co-receptor (Homo sapiens, UniProt P01730); assay: Co-immunoprecipitation with His-tagged Salp15 from Jurkat cell lysate; assay type: binding; conditions: anti-His
# T1 construct: 1-2×10^7 Jurkat, HeLa or HeLa-CD4 cells were lysed; endogenous in cells; host or cells: Jurkat
# Method: For coimmunoprecipitation, 1-2×10^7 Jurkat, HeLa or HeLa-CD4 cells were lysed in 20 mM HEPES pH 7.4 containing 150 mM NaCl, 1% Triton-X 100, 0.25% sodium deoxycholate, 25 mM NaF, 2 mM Na3VO4, 1 mM PMSF and protease inhibitors for 15 min on ice. One mg of protein equivalent of the cell lysate was mixed with 50 μg/mL of 6× histidine-tagged-Salp15 or 6×His-tagged Salp13 fused to thioredoxin (29 kD) as a control protein, (Anguita et al., 2002, Das et al., 2001) and immunoprecipitated using an anti-poly-histidine antibody conjugated to agarose, anti-CD4, anti-CD3, anti-CD28 or normal rabbit IgG overnight at 4° C. The immunoprecipitate was run on SDS-PAGE followed by immunoblotting with anti-poly His-HRP, anti-CD4, anti-CD3, anti-CD28 or anti-TCRβ.
# Jurkat cells = assay: Lipid raft redistribution (CTB594 staining) in activated Jurkat cells; assay type: cell-based, human; conditions: Salp15 treatment prior to anti-CD3/CD28 stimulation
# Method: (§1) Naïve CD4+ T cells from C3H/HeN, Balb/c, and B10.BR mice were purified as previously described (Anguita et al., 2002). CD4+ T cells were preincubated in Click's modified Bruff's Medium (Sigma Chemical Co., St. Louis, Mo., U.S.A.) for 10 minutes at 37° C. with and without Salp15 (50 μg/mL) and stimulated for 20 min or the indicated times at 37° C. with 10 μg/mL of anti-CD3ε, 1 μg/mL of anti-CD28, and 10 μg/mL of anti-armenian and syrian hamster IgG (BD Biosciences Pharmingen, San Jose, Calif., U.S.A.). Jurkat (E6-1) cells were stimulated using 5 μg/mL of OKT3 mAb (eBioscience, San Diego, Calif., U.S.A.) and 1 μg/mL of anti-human CD28 cross linked with 5 μg/mL anti-mouse IgG for the indicated times.
# For the visualization of lipid rafts, phospho-tyrosine, and cytoskeleton reorganization, CD4^+, CD8^+ or Jurkat cells were cytospun for 10 minutes at 1000 RPM onto positively charged microslides (Fisher Scientific, Hampton, N.H., U.S.A.). The cells were fixed with 3.7% paraformaldehyde (Sigma Chemical Co.) for 15 minutes and stained with CTB594 (Molecular Probes, Eugene, Oreg., U.S.A.), AlexaFluor488 labeled phalloidin (Molecular Probes) or (1:50) biotin-conjugated anti-p-Tyr (PY99) followed by Streptavidin-AlexaFluor594 (1:100, Molecular Probes). […]
# [1] = test system: fusion of HL2/3 cells expressing HIV envelope proteins with HeLa-CD4 cells; assay: gp120-CD4-mediated cell fusion by luciferase assay (HeLa-CD4 + HL2/3 cells); assay type: cell-based; conditions: 10 and 50 ug/ml Salp15; 48 hours
# Method: 106 HeLa-CD4 cells, clone 1022 (NIH AIDS Research & Reference Reagent Program, Germantown, Md., U.S.A.) were plated in a 6-well plate and transfected with the plasmid Blue 3′ LTR-luciferase (NIH AIDS Research & Reference Reagent Program) using the lipofectamin method (Invitrogen).
# After 24 hours, the cells were trypsinized and mixed with HL2/3 cells that express HIV envelope proteins (NIH AIDS Research & Reference Reagent Program), encoding Gag, Nef, Rev, Tat and Env proteins from HIV (0.2×106 HeLa-CD4+0.2×106 HL2/3) in a 24-well plate at a final volume of 500 uL. The cells were incubated in the presence of 10 and 50 ug/ml of Salp15. The positive control was anti-CD4 Ab and the negative control was anti-CD3.
# The cells were harvested after 48 hours, washed with PBS and lysed with 100 uL of Passive Lysis buffer (Promega) per well, for 15 min at RT. The lysates were transferred to Eppendorf tubes, spun at 10,000×g and assessed for Luciferase activity and protein content by the Bradford assay (BioRad). Luciferase activity is an indicator of cell fusion mediated by the interaction of HIV envelope proteins on HL2/3 cells and CD4 on HeLa-CD4 cells.
# mouse CD4+ T lymphocytes = assay: TCR ligation-induced protein tyrosine phosphorylation in anti-CD3/CD28 stimulated CD4+ T cells (immunoblotting, confocal microscopy); assay type: cell-based
# Method: as §1
# For the visualization of lipid rafts, phospho-tyrosine, and cytoskeleton reorganization, CD4^+, CD8^+ or Jurkat cells were cytospun for 10 minutes at 1000 RPM onto positively charged microslides (Fisher Scientific, Hampton, N.H., U.S.A.). The cells were fixed with 3.7% paraformaldehyde (Sigma Chemical Co.) for 15 minutes and stained with CTB594 (Molecular Probes, Eugene, Oreg., U.S.A.), AlexaFluor488 labeled phalloidin (Molecular Probes) or (1:50) biotin-conjugated anti-p-Tyr (PY99) followed by Streptavidin-AlexaFluor594 (1:100, Molecular Probes). For p-LAT and p-PLCγ1 staining, fixed cells were treated with PBS containing 0.1% Triton-X 100 and 100 mM glycine for 15 min at room temperature and stained using rabbit p-LAT (Tyr^191) or rabbit anti-p-PLCγ1 (Tyr^783) probed with anti-rabbit IgG488 (Molecular Probes).
# For tyrosine phosphorylation western analysis, cells were lysed in 60 mM Tris (pH 7.4) containing 150 mM NaCl, 5 mM EDTA, 1 mM EGTA, 1 mM β-glycerol phosphate, 2.5 mM sodium pyrophosphate, 25 mM NaF, 2 mM sodium orthovanadate, 1% Triton-X 100, 0.25% sodium deoxycholate, 1 mM PMSF and protease inhibitors for 15 min on ice, sonicated 4×5 sec and incubated at 37° C. for 10 min. The lysate was cleared by centrifugation and boiled in SDS-sample buffer. The samples were subjected to SDS-PAGE, transferred to a nitrocellulose membrane and immunoblotted with anti-pTyr, anti-pPLCγ1 and anti-Vav1, anti-pSrc family (Tyr^416) to measure p-Lck^394 (Alonso et al., 2004), anti-Lck, anti-pZap70 (Tyr^319), anti-Zap70, p44/42 and p44/42 (phopho-Tyr^204/Thr^202). Vav1 was immunoprecipitated using anti-Vav1 and protein A-agarose beads overnight, subjected to SDS-PAGE followed by immunoblotting with anti-pTyr or anti-Vav1. To examine the effect of Salp15 on T cell stimulation with INFγ, CD4^+ T cells were preincubated with Salp15 at 50 μg/mL followed by activation with 20 ng/mL of mouse recombinant INFγ (R & D Systems, Minneapolis, Minn., U.S.A.) for 30 min at 37° C. The cells were lysed as above and subjected to SDS-PAGE and immunoblotting with anti-pSTAT1 and anti-STAT1.
# Quantification of immunoblots was performed using the SCION IMAGE™ software package, Scion Corporation (Frederick, Md., U.S.A.).
# [2] = Salp15 pretreatment, quantification of the specific bands
substance,measurement,setting,value
"Salp15: secreted salivary protein from Ixodes scapularis, SEQ ID NO: 2; recombinant His-tagged, produced in Drosophila S2 cells",Co-immunoprecipitation of CD4,CD4 co-receptor,co-immunoprecipitated
same,Lipid raft clustering,Jurkat cells,reduced
same,Reduction in cell fusion (luciferase activity),[1],concentration dependent reduction
same,Reduction of PLCγ1 phosphorylation (Tyr783),"mouse CD4+ T lymphocytes; Salp15 pretreatment (50 μg/mL), anti-CD3/CD28 stimulated, compared to control treated cells",46%
same,Reduction in tyrosine phosphorylation of Vav1,"mouse CD4+ T lymphocytes; Salp15 pretreatment, Vav1 immunoprecipitation, anti-pTyr immunoblot",~58%
same,Phosphorylation level of Lat at Tyr191,"mouse CD4+ T lymphocytes; Salp15 pretreatment, immunofluorescence",reduced
same,Reduction in tyrosine phosphorylation of Lck (Tyr394),mouse CD4+ T lymphocytes; [2],about 56%
same,Reduction in tyrosine phosphorylation of Zap70 (Tyr319),mouse CD4+ T lymphocytes; [2],~67%
same,ERK activation (ERK1/2 phosphorylation),mouse CD4+ T lymphocytes; anti-CD3/CD28 stimulation,does not impair
same,Lck phosphorylation in the absence of T cell stimulation,mouse CD4+ T lymphocytes; no stimulation,did not induce
